Measurements published in ChEMBL document CHEMBL3044749, “Synthesis, characterization, in vitro hydrolysis and pharmacodynamic profiles of potential novel mutual prodrugs of N-(2,3-xylyl anthranilic acid)” (Med Chem Res, 2013).
Blank lines part the entries; values can stand above or below the compound they belong to.

Legend:
Rattus norvegicus [1] = test: Anti-inflammatory activity in Wistar albino Rattus norvegicus (rat) assessed as inhibition of carrageenan-induced paw edema at 24.65 mg/kg, po administered 1 hr prior to carrageenan injection measured after 4 hr by mercury plethysmometer (reference value: 0%); type: functional
Rattus norvegicus [2] = test: Anti-inflammatory activity in Wistar albino Rattus norvegicus (rat) assessed as inhibition of carrageenan-induced paw edema at 24.65 mg/kg, po administered 1 hr prior to carrageenan injection measured after 8 hr by mercury plethysmometer (reference value: 0%); type: functional
Rattus norvegicus [3] = test: Anti-inflammatory activity in Wistar albino Rattus norvegicus (rat) assessed as inhibition of carrageenan-induced paw edema at 24.65 mg/kg, po administered 1 hr prior to carrageenan injection measured after 3 hr by mercury plethysmometer (reference value: 0%); type: functional
Rattus norvegicus [4] = test: Anti-inflammatory activity in Wistar albino Rattus norvegicus (rat) assessed as inhibition of carrageenan-induced paw edema at 24.65 mg/kg, po administered 1 hr prior to carrageenan injection measured after 1 hr by mercury plethysmometer (reference value: 0%); type: functional
[5] = Half life in simulated intestinal fluid at 37 degC at pH 7.4 by UV spectrophotometer analysis; type: ADME
Rattus norvegicus [6] = test: Anti-inflammatory activity in Wistar albino Rattus norvegicus (rat) assessed as inhibition of carrageenan-induced paw edema at 24.65 mg/kg, po administered 1 hr prior to carrageenan injection measured after 2 hr by mercury plethysmometer (reference value: 0%); type: functional
[7] = Stability of the compound assessed as prodrug hydrolysis in non-enzymatic simulated gastric fluid at 37 degC at pH 1.2 measured for 2 hr by UV spectrophotometer analysis; type: physicochemical; settings: simulated gi fluid, pH 1.2, 2 h
Rattus norvegicus [8] = test: Anti-inflammatory activity in Wistar albino Rattus norvegicus (rat) assessed as inhibition of carrageenan-induced paw edema at 24.65 mg/kg, po administered 1 hr prior to carrageenan injection measured after 6 hr by mercury plethysmometer (reference value: 0%); type: functional
Mus musculus [9] = test: Analgesic activity in Swiss Mus musculus (mouse) assessed as inhibition of acetic acid-induced abdominal writhing at 24.65 mg/kg, po administered 1 hr prior to acetic acid injection measured for 10 min; type: functional; settings: Abdomen
Rattus norvegicus [10] = test: Gastrointestinal toxicity in Wistar albino Rattus norvegicus (rat) assessed as ulcerogenicity index at 24.65 mg/kg, po administered for 7 days measured on day 8 (reference value: 0 no unit); type: organism-based; set-up: dose 24.65 mg/kg, route oral; settings: in vivo, 168 h
[11] = Half life in simulated gastrointestinal fluid at 37 degC at pH 1.2 by UV spectrophotometer analysis; type: ADME
Rattus norvegicus [12] = test: Anti-inflammatory activity in Wistar albino Rattus norvegicus (rat) assessed as inhibition of carrageenan-induced paw edema at 27.65 mg/kg, po administered 1 hr prior to carrageenan injection measured after 3 hr by mercury plethysmometer (reference value: 0%); type: functional
Rattus norvegicus [13] = test: Anti-inflammatory activity in Wistar albino Rattus norvegicus (rat) assessed as inhibition of carrageenan-induced paw edema at 27.65 mg/kg, po administered 1 hr prior to carrageenan injection measured after 6 hr by mercury plethysmometer (reference value: 0%); type: functional
Rattus norvegicus [14] = test: Gastrointestinal toxicity in Wistar albino Rattus norvegicus (rat) assessed as ulcerogenicity index at 27.65 mg/kg, po administered for 7 days measured on day 8 (reference value: 0 no unit); type: organism-based; set-up: dose 27.65 mg/kg, route oral; settings: in vivo, 168 h
Rattus norvegicus [15] = test: Anti-inflammatory activity in Wistar albino Rattus norvegicus (rat) assessed as inhibition of carrageenan-induced paw edema at 27.65 mg/kg, po administered 1 hr prior to carrageenan injection measured after 8 hr by mercury plethysmometer (reference value: 0%); type: functional
Rattus norvegicus [16] = test: Anti-inflammatory activity in Wistar albino Rattus norvegicus (rat) assessed as inhibition of carrageenan-induced paw edema at 27.65 mg/kg, po administered 1 hr prior to carrageenan injection measured after 1 hr by mercury plethysmometer (reference value: 0%); type: functional
Mus musculus [17] = test: Analgesic activity in Swiss Mus musculus (mouse) assessed as inhibition of acetic acid-induced abdominal writhing at 27.65 mg/kg, po administered 1 hr prior to acetic acid injection measured for 10 min; type: functional; settings: Abdomen
Rattus norvegicus [18] = test: Anti-inflammatory activity in Wistar albino Rattus norvegicus (rat) assessed as inhibition of carrageenan-induced paw edema at 27.65 mg/kg, po administered 1 hr prior to carrageenan injection measured after 4 hr by mercury plethysmometer (reference value: 0%); type: functional
Rattus norvegicus [19] = test: Anti-inflammatory activity in Wistar albino Rattus norvegicus (rat) assessed as inhibition of carrageenan-induced paw edema at 27.65 mg/kg, po administered 1 hr prior to carrageenan injection measured after 2 hr by mercury plethysmometer (reference value: 0%); type: functional
Rattus norvegicus [20] = test: Anti-inflammatory activity in Wistar albino Rattus norvegicus (rat) assessed as inhibition of carrageenan-induced paw edema at 13 mg/kg, po administered 1 hr prior to carrageenan injection measured after 3 hr by mercury plethysmometer (reference value: 0%); type: functional
Rattus norvegicus [21] = test: Anti-inflammatory activity in Wistar albino Rattus norvegicus (rat) assessed as inhibition of carrageenan-induced paw edema at 13 mg/kg, po administered 1 hr prior to carrageenan injection measured after 6 hr by mercury plethysmometer (reference value: 0%); type: functional
Rattus norvegicus [22] = test: Gastrointestinal toxicity in Wistar albino Rattus norvegicus (rat) assessed as ulcerogenicity index at 13 mg/kg, po administered for 7 days measured on day 8 (reference value: 0 no unit); type: organism-based; set-up: dose 13 mg/kg, route oral; settings: in vivo, 168 h
Mus musculus [23] = test: Analgesic activity in Swiss Mus musculus (mouse) assessed as inhibition of acetic acid-induced abdominal writhing at 13 mg/kg, po administered 1 hr prior to acetic acid injection measured for 10 min; type: functional; settings: Abdomen
Rattus norvegicus [24] = test: Anti-inflammatory activity in Wistar albino Rattus norvegicus (rat) assessed as inhibition of carrageenan-induced paw edema at 13 mg/kg, po administered 1 hr prior to carrageenan injection measured after 2 hr by mercury plethysmometer (reference value: 0%); type: functional
Rattus norvegicus [25] = test: Anti-inflammatory activity in Wistar albino Rattus norvegicus (rat) assessed as inhibition of carrageenan-induced paw edema at 13 mg/kg, po administered 1 hr prior to carrageenan injection measured after 4 hr by mercury plethysmometer (reference value: 0%); type: functional
Rattus norvegicus [26] = test: Anti-inflammatory activity in Wistar albino Rattus norvegicus (rat) assessed as inhibition of carrageenan-induced paw edema at 13 mg/kg, po administered 1 hr prior to carrageenan injection measured after 1 hr by mercury plethysmometer (reference value: 0%); type: functional
Rattus norvegicus [27] = test: Anti-inflammatory activity in Wistar albino Rattus norvegicus (rat) assessed as inhibition of carrageenan-induced paw edema at 13 mg/kg, po administered 1 hr prior to carrageenan injection measured after 8 hr by mercury plethysmometer (reference value: 0%); type: functional
Rattus norvegicus [28] = test: Anti-inflammatory activity in Wistar albino Rattus norvegicus (rat) assessed as inhibition of carrageenan-induced paw edema at 23 mg/kg, po administered 1 hr prior to carrageenan injection measured after 8 hr by mercury plethysmometer (reference value: 0%); type: functional
Rattus norvegicus [29] = test: Gastrointestinal toxicity in Wistar albino Rattus norvegicus (rat) assessed as ulcerogenicity index at 23 mg/kg, po administered for 7 days measured on day 8 (reference value: 0 no unit); type: organism-based; set-up: dose 23 mg/kg, route oral; settings: in vivo, 168 h
Rattus norvegicus [30] = test: Anti-inflammatory activity in Wistar albino Rattus norvegicus (rat) assessed as inhibition of carrageenan-induced paw edema at 23 mg/kg, po administered 1 hr prior to carrageenan injection measured after 3 hr by mercury plethysmometer (reference value: 0%); type: functional
Rattus norvegicus [31] = test: Anti-inflammatory activity in Wistar albino Rattus norvegicus (rat) assessed as inhibition of carrageenan-induced paw edema at 23 mg/kg, po administered 1 hr prior to carrageenan injection measured after 2 hr by mercury plethysmometer (reference value: 0%); type: functional
Mus musculus [32] = test: Analgesic activity in Swiss Mus musculus (mouse) assessed as inhibition of acetic acid-induced abdominal writhing at 23 mg/kg, po administered 1 hr prior to acetic acid injection measured for 10 min; type: functional; settings: Abdomen
Rattus norvegicus [33] = test: Anti-inflammatory activity in Wistar albino Rattus norvegicus (rat) assessed as inhibition of carrageenan-induced paw edema at 23 mg/kg, po administered 1 hr prior to carrageenan injection measured after 4 hr by mercury plethysmometer (reference value: 0%); type: functional
Rattus norvegicus [34] = test: Anti-inflammatory activity in Wistar albino Rattus norvegicus (rat) assessed as inhibition of carrageenan-induced paw edema at 23 mg/kg, po administered 1 hr prior to carrageenan injection measured after 6 hr by mercury plethysmometer (reference value: 0%); type: functional
Rattus norvegicus [35] = test: Anti-inflammatory activity in Wistar albino Rattus norvegicus (rat) assessed as inhibition of carrageenan-induced paw edema at 23 mg/kg, po administered 1 hr prior to carrageenan injection measured after 1 hr by mercury plethysmometer (reference value: 0%); type: functional

half-life [5]: 7.37 h | Stability [7]: Stable | half-life [11]: 16.2 h
SMILES: Cc1cccc(Nc2ccccc2C(=O)OCc2c(C(C)C)c(=O)n(-c3ccccc3)n2C)c1C
inhibition in vivo at 24.65 mg/kg (Rattus norvegicus [1]): 72.6% | inhibition in vivo at 24.65 mg/kg (Rattus norvegicus [2]): 44% | inhibition in vivo at 24.65 mg/kg (Rattus norvegicus [3]): 71.4% | inhibition in vivo at 24.65 mg/kg (Rattus norvegicus [4]): 13.3% | inhibition in vivo at 24.65 mg/kg (Rattus norvegicus [6]): 59.1% | inhibition in vivo at 24.65 mg/kg (Rattus norvegicus [8]): 62.9% | inhibition in vivo at 24.65 mg/kg (Mus musculus [9]): 81.7% | UI (Rattus norvegicus [10]): 0.25

half-life [5]: 8.98 h | Stability [7]: Stable | half-life [11]: 18.7 h
SMILES: Cc1cccc(Nc2ccccc2C(=O)NCC(=O)OCc2c(C(C)C)c(=O)n(-c3ccccc3)n2C)c1C
inhibition in vivo at 27.65 mg/kg (Rattus norvegicus [12]): 85.7% | inhibition in vivo at 27.65 mg/kg (Rattus norvegicus [13]): 38.5% | UI (Rattus norvegicus [14]): 1 | inhibition in vivo at 27.65 mg/kg (Rattus norvegicus [15]): 10% | inhibition in vivo at 27.65 mg/kg (Rattus norvegicus [16]): 23.3% | inhibition in vivo at 27.65 mg/kg (Mus musculus [17]): 63.9% | inhibition in vivo at 27.65 mg/kg (Rattus norvegicus [18]): 83.7% | inhibition in vivo at 27.65 mg/kg (Rattus norvegicus [19]): 77.2%

SMILES: Cc1cccc(Nc2ccccc2C(=O)O)c1C [MEFENAMIC ACID]
inhibition in vivo at 13 mg/kg (Rattus norvegicus [20]): 53.1% | inhibition in vivo at 13 mg/kg (Rattus norvegicus [21]): 24.3% | UI (Rattus norvegicus [22]): 3.17 | inhibition in vivo at 13 mg/kg (Mus musculus [23]): 61.1% | inhibition in vivo at 13 mg/kg (Rattus norvegicus [24]): 52.2% | inhibition in vivo at 13 mg/kg (Rattus norvegicus [25]): 35.6% | inhibition in vivo at 13 mg/kg (Rattus norvegicus [26]): 38.4% | inhibition in vivo at 13 mg/kg (Rattus norvegicus [27]): 20%

SMILES: CC(C)c1c(CO)n(C)n(-c2ccccc2)c1=O [3-HYDROXYMETHYL PROPYPHENAZONE]
inhibition in vivo at 23 mg/kg (Rattus norvegicus [28]): 12% | UI (Rattus norvegicus [29]): 1.25 | inhibition in vivo at 23 mg/kg (Rattus norvegicus [30]): 40.2% | inhibition in vivo at 23 mg/kg (Rattus norvegicus [31]): 46.4% | inhibition in vivo at 23 mg/kg (Mus musculus [32]): 78.3% | inhibition in vivo at 23 mg/kg (Rattus norvegicus [33]): 31.2% | inhibition in vivo at 23 mg/kg (Rattus norvegicus [34]): 23.7% | inhibition in vivo at 23 mg/kg (Rattus norvegicus [35]): 31.5%
